ChEMBL document CHEMBL1157288, “Isolation and structure assignment of an iminotetrasaccharide from a cultured filamentous cyanobacterium Anabaena sp” (J Nat Prod, 2006)

Tested on: Escherichia coli
Experiment: Inhibition of Escherichia coli beta-glucuronidase at 560 uM

inhibition: 50%
Structure (SMILES): CO[C@@H]1[C@@H](O)[C@@H](O[C@@H]2[C@@H]([C@H](C)O)NC[C@@H]2O)O[C@H](CO)[C@H]1O[C@H]1OC[C@H](OC(C)=O)[C@H](OC(C)=O)[C@H]1O[C@H]1O[C@H](C(=O)O)[C@@H](O)[C@H](O)[C@H]1O
